Source: article PMC9502953 (Molecules, 2022)

Tested on: not given
Assay: not given
Parameters: method as in ref 12, 43, 3, 44, 45, 46 (in order of compounds)
Conditions: similar quantities; 46 (in order of compounds); cited from earlier work

Compound | Fe^3+-reducing absorbance values (previous studies)
O=c1oc2cc(O)ccc2c2oc3cc(O)ccc3c12 [coumestrol] | 0.739
tannic acid | 2.428
O=C(O)/C=C/c1ccc(O)c(O)c1 [caffeic acid] | 2.769
O=c1[nH]c(=O)c2[nH]c(=O)[nH]c2[nH]1 [uric acid] | 0.432
O=C(/C=C/c1ccc(O)c(O)c1)OCCc1ccccc1 [CAPE, caffeic acid phenethyl ester] | 2.509
CC(=O)c1c(O)c(C)c(O)c2c1OC1=CC(=O)C(C(C)=O)C(=O)C12C (centres unmarked) [usnic acid] | 0.278

Tested on: not given
Assay: not given
Parameters: method as in ref 12, 3, 47, 48, 49, 50 (in order of compounds)
Conditions: same concentration; 50 (in order of compounds); cited from earlier work

Compound | Cu^2+-reducing absorbance values (natural phenolics)
C=CCc1ccc(O)c(OC)c1 [eugenol] | 0.762
O=c1oc2cc(O)ccc2c2oc3cc(O)ccc3c12 [coumestrol] | 0.739
O=C1c2c(O)cc(O)cc2OC(c2ccc(O)c(O)c2)C1O (centres unmarked) [taxifolin] | 0.750
CCCCCc1cc(O)cc(O)c1 [olivetol] | 1.314
CC(=O)c1c(O)c(C)c(O)c2c1OC1=CC(=O)C(C(C)=O)C(=O)C12C (centres unmarked) [usnic acid] | 0.277

Biological target: T1, human carbonic anhydrase II (hCA II) (Homo sapiens, UniProt P00918)
T1 construct: from tissue; host or cells: human erythrocytes
Assay: Carbonic anhydrase II inhibition (esterase activity, 348 nm)
Assay type: biochemical
Conditions: not given
Protocol: The CA II isozyme was purified from human erythrocytes using Sepharose-4B-Tirozyne-sulfanylamide affinity column chromatography. Further, it was precipitated, and the serum was separated and adjusted with solid Tris to pH 8.7. The sample was then loaded to the affinity chromatography column and equilibrated with Tris-Na2SO4/HCl (pH 8.7, 22 mM/25 mM). CA II was eluted with sodium acetate/NaClO4 (0.5 M, pH 5.6, 25 °C). Protein quantity during the purification study was determined using the Bradford method. Bovine serum albumin was used as the standard protein [93]. The purity of CA II was controlled using SDS-PAGE [94]. During purification and inhibition of CA II, esterase activities were performed following the change in absorbance at 348 nm
(§1) The Ki values and other parameters were calculated from Lineweaver-Burk graphs as described priorly. The Ki values were taken out from this graph. All of the analyses were independently conducted in triplicate, and the results are expressed as mean values ± SD.

Compound | IC50
COc1ccc2c(c1O)-c1c(O)c(OC)cc3c1[C@H](C2)[N+](C)(C)CC3 [Magnofluorine] | 26 nM

Same assay, conditions: Lineweaver-Burk graphs, mean ± SD; read-out: Ki CA II

Compound | Ki
COc1ccc2c(c1O)-c1c(O)c(OC)cc3c1[C@H](C2)[N+](C)(C)CC3 [Magnofluorine] | 25.4 ± 1.1 nM

Tested on: not listed separately
Assay: ABTS radical scavenging (734 nm)
Conditions: not given
Protocol: (§2) The DPPH radical scavenging activities were assessed by measuring the absorbance at 517 nm after keeping in the dark for 30 min [81]. […] ABTS solution (7.0 mM) was prepared using K2S2O8 ([…]), and the absorbance of the control was set to 0.700 ± 0.025 at 734 nm on dilution with buffer solution (0.1 M and pH 7.4). […] The control included only ABTS radical solution [82]. […] Briefly, 0.2 mL of FeCl3 (50 mM) and 1 mL of DMPD solution were added to the buffer (pH 5.3, 100 mM). The concentrations of all of the samples were 10–30 μg/mL. The total volume was adjusted to […] using deionized water. An aliquot (1 mL) of DMPD radicals was added, and the absorbance was recorded at 505 nm. The radical scavenging results were expressed as half maximal scavenging concentrations (IC50, μg/mL).

Compound | ABTS^•+ Scavenging IC50
Cc1c(C)c2c(c(C)c1O)CC[C@@](C)(CCC[C@H](C)CCC[C@H](C)CCCC(C)C)O2 [α-Tocopherol] | 8.73 µg/mL
Cc1c(C)c2c(c(C)c1O)CCC(C)(C(=O)O)O2 (centres unmarked) [Trolox] | 6.16 µg/mL
COc1ccc2c(c1O)-c1c(O)c(OC)cc3c1[C@H](C2)[N+](C)(C)CC3 [Magnofluorine] | 27.61 µg/mL
Cc1cc(C(C)(C)C)c(O)c(C(C)(C)C)c1 [BHT, butylated hydroxytoluene] | 6.99 µg/mL
COc1ccc(O)c(C(C)(C)C)c1 [BHA, butylated hydroxyanisole] | 5.07 µg/mL

Tested on: not given
Assay: not given
Parameters: method as in ref 47, 48, 3, 53, 49, 48, 12, 53, 50 (in order of compounds)
Conditions: 50 (in order of compounds); cited from earlier work

Compound | DMPD^•+ removing IC50 (literature)
C=CCc1ccc(O)c(OC)c1 [eugenol] | 10.04 µg/mL
O=c1oc2cc(O)ccc2c2oc3cc(O)ccc3c12 [coumestrol] | 12.81 µg/mL
O=C1c2c(O)cc(O)cc2OC(c2ccc(O)c(O)c2)C1O (centres unmarked) [taxifolin] | 173.25 µg/mL
CCCCCc1cc(O)cc(O)c1 [olivetol] | 19.25 µg/mL
L-Adrenaline | 15.6 µg/mL
O=C(/C=C/c1ccc(O)c(O)c1)OCCc1ccccc1 [CAPE, caffeic acid phenethyl ester] | 26.70 µg/mL
CC(=O)c1c(O)c(C)c(O)c2c1OC1=CC(=O)C(C(C)=O)C(=O)C12C (centres unmarked) [usnic acid] | 33.00 µg/mL

Tested on: not listed separately
Assay: Fe^3+ reducing ability (K3Fe(CN)6 reduction, absorbance at 700 nm)
Conditions: 30 μg/mL concentration
Protocol: (§3) The reaction was terminated by adding 1 mL of trichloroacetic acid (TCA, 10%). Following this, 0.5 mL of newly prepared FeCl3 (0.1%) was transferred, and the absorptions were measured at 700 nm. Deionized water was used as the blank control. […] Finally, after 20 min, absorbances were recorded at 450 nm.

Compound | Fe^3+ Reducing λ (700 nm) absorbance
Cc1c(C)c2c(c(C)c1O)CC[C@@](C)(CCC[C@H](C)CCC[C@H](C)CCCC(C)C)O2 [α-Tocopherol] | 0.957
Cc1c(C)c2c(c(C)c1O)CCC(C)(C(=O)O)O2 (centres unmarked) [Trolox] | 2.119
COc1ccc2c(c1O)-c1c(O)c(OC)cc3c1[C@H](C2)[N+](C)(C)CC3 [Magnofluorine] | 0.967
Cc1cc(C(C)(C)C)c(O)c(C(C)(C)C)c1 [BHT, butylated hydroxytoluene] | 0.952
COc1ccc(O)c(C(C)(C)C)c1 [BHA, butylated hydroxyanisole] | 2.347

Tested on: not listed separately
Assay: DMPD radical scavenging (505 nm)
Conditions: not given
Protocol: as §2

Compound | DMPD^•+ Scavenging IC50
Cc1c(C)c2c(c(C)c1O)CC[C@@](C)(CCC[C@H](C)CCC[C@H](C)CCCC(C)C)O2 [α-Tocopherol] | 7.11 µg/mL
Cc1c(C)c2c(c(C)c1O)CCC(C)(C(=O)O)O2 (centres unmarked) [Trolox] | 4.33 µg/mL
COc1ccc2c(c1O)-c1c(O)c(OC)cc3c1[C@H](C2)[N+](C)(C)CC3 [Magnofluorine] | 15.26 µg/mL
Cc1cc(C(C)(C)C)c(O)c(C(C)(C)C)c1 [BHT, butylated hydroxytoluene] | 8.72 µg/mL
COc1ccc(O)c(C(C)(C)C)c1 [BHA, butylated hydroxyanisole] | 11.99 µg/mL

Tested on: not listed separately
Assay: Cu^2+ reducing ability (CUPRAC, neocuproine, absorbance at 450 nm)
Conditions: 30 μg/mL concentration
Protocol: as §3

Compound | Cu^2+ Reducing λ (450 nm) absorbance
Cc1c(C)c2c(c(C)c1O)CC[C@@](C)(CCC[C@H](C)CCC[C@H](C)CCCC(C)C)O2 [α-Tocopherol] | 0.816
Cc1c(C)c2c(c(C)c1O)CCC(C)(C(=O)O)O2 (centres unmarked) [Trolox] | 1.548
COc1ccc2c(c1O)-c1c(O)c(OC)cc3c1[C@H](C2)[N+](C)(C)CC3 [Magnofluorine] | 0.458
Cc1cc(C(C)(C)C)c(O)c(C(C)(C)C)c1 [BHT, butylated hydroxytoluene] | 2.044
COc1ccc(O)c(C(C)(C)C)c1 [BHA, butylated hydroxyanisole] | 2.216

Biological target: T2, acetylcholinesterase (AChE) (Electrophorus electricus, UniProt O42275)
T2 construct: purchased Sigma-Aldrich GmbH (Steinheim, Germany)
T2 sequence (O42275 24-633): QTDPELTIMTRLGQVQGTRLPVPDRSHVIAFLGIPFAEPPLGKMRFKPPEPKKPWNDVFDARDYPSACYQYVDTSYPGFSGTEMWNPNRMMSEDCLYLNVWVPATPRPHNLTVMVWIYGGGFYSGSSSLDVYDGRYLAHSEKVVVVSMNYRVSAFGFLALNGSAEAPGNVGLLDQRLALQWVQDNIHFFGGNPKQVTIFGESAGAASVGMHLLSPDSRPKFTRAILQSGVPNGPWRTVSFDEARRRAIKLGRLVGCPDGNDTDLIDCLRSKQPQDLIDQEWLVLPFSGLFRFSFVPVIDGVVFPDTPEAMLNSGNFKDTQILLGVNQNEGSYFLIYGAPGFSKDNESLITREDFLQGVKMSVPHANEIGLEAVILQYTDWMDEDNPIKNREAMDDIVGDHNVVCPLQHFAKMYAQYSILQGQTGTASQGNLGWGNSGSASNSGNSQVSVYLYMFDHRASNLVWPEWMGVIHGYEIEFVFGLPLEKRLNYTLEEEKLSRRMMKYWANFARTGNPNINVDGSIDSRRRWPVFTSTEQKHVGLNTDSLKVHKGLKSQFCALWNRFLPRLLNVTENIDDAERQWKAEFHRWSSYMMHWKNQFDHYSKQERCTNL
Assay: biochemical
Conditions: not given
Protocol: AChI and BChI were used as substrates for enzymatic reactions.
as §1

Compound | IC50
COc1ccc2c(c1O)-c1c(O)c(OC)cc3c1[C@H](C2)[N+](C)(C)CC3 [Magnofluorine] | 10 nM

Tested on: not given
Assay: not given
Conditions: 50 (in order of compounds); cited from earlier work
Remark: another data set of the same source

Compound | DPPH^• removal IC50 (literature)
C=CCc1ccc(O)c(OC)c1 [eugenol] | 16.06 µg/mL
O=C1c2c(O)cc(O)cc2OC(c2ccc(O)c(O)c2)C1O (centres unmarked) [taxifolin] | 77.00 µg/mL
CCCCCc1cc(O)cc(O)c1 [olivetol] | 17.77 µg/mL
L-Adrenaline | 30.6 µg/mL
O=C(/C=C/c1ccc(O)c(O)c1)OCCc1ccccc1 [CAPE, caffeic acid phenethyl ester] | 3.30 µg/mL
CC(=O)c1c(O)c(C)c(O)c2c1OC1=CC(=O)C(C(C)=O)C(=O)C12C (centres unmarked) [usnic acid] | 49.50 µg/mL

Same assay, conditions: 53 (in order of compounds); cited from earlier work

Compound | IC50 values for comparison (radical scavenging; assay not given, paragraph on DPPH)
C=CCc1ccc(O)c(OC)c1 [eugenol] | 7.84 µg/mL
O=c1oc2cc(O)ccc2c2oc3cc(O)ccc3c12 [coumestrol] | 25.95 µg/mL
O=C1c2c(O)cc(O)cc2OC(c2ccc(O)c(O)c2)C1O (centres unmarked) [taxifolin] | 0.83 µg/mL
CCCCCc1cc(O)cc(O)c1 [olivetol] | 1.94 µg/mL
L-Adrenaline | 6.93 µg/mL
O=C(/C=C/c1ccc(O)c(O)c1)OCCc1ccccc1 [CAPE, caffeic acid phenethyl ester] | 9.80 µg/mL
CC(=O)c1c(O)c(C)c(O)c2c1OC1=CC(=O)C(C(C)=O)C(=O)C12C (centres unmarked) [usnic acid] | 10.41 µg/mL

Tested on: not listed separately
Assay: DPPH radical scavenging (Blois method, 517 nm)
Conditions: not given
Protocol: as §2

Compound | DPPH^• Scavenging IC50
Cc1c(C)c2c(c(C)c1O)CC[C@@](C)(CCC[C@H](C)CCC[C@H](C)CCCC(C)C)O2 [α-Tocopherol] | 11.31 µg/mL
Cc1c(C)c2c(c(C)c1O)CCC(C)(C(=O)O)O2 (centres unmarked) [Trolox] | 7.059 µg/mL
COc1ccc2c(c1O)-c1c(O)c(OC)cc3c1[C@H](C2)[N+](C)(C)CC3 [Magnofluorine] | 10.58 µg/mL
Cc1cc(C(C)(C)C)c(O)c(C(C)(C)C)c1 [BHT, butylated hydroxytoluene] | 25.95 µg/mL
COc1ccc(O)c(C(C)(C)C)c1 [BHA, butylated hydroxyanisole] | 10.10 µg/mL
